From patent publication US20260317337A1, “HETEROCYCLIC COMPOUNDS FOR IMAGING AGGREGATED ALPHA SYNUCLEIN IN THE SYNUCLEINOPATHIES” (THE TRUSTEES OF THE UNIVERSITY OF PENNSYLVANIA, priority 2023, published 2026)
Like-named read-outs stand apart in the source and are kept apart here. Each block holds one compound with its values, some of them ahead of it.

Experiments:
aggregated tau = aggregated tau (Homo sapiens, UniProt P10636); test: Blocking of the ^3H-labelled compound with tau ligands, homogenate binding and autoradiography; settings: AD, CBD and PSP
[1] = Dynamic PET imaging in non-human primate; type: in vivo
Experimental: FIG. 2 are dynamic whole body PET images of ^11C-compound 103 in a non-human primate 1-90 minutes after administration ^11C-compound 103.
FIG. 6 are dynamic PET images (top) and time-activity curves for whole brain and different brain regions (bottom) of ^11C-compound 103 in a non-human primate and show the high uptake and rapid washout of [^11C]-compound 103.
FIG. 7 are dynamic PET images (top) and time-activity curves (bottom) of ^11C-compound 43 in a non-human primate and show the high uptake and rapid washout of [^11C]-compound 43.
Kd and Bmax values of [^3H]-Compound 113 were obtained from a panel of postmortem brain samples (e.g., PD, MSA, corticobasal degeneration (CBD), progressive supranuclear palsy (PSP), Alzheimer's disease (AD)). Nuclear emulsion autoradiography identified the distribution of [^3H]-Compound 113 on PD and MSA tissues for aggregated Asyn, which was confirmed by antibody staining. Dynamic whole body PET images of [^11C]-Compound 113 in non-human primate were obtained over 90 min. […] The non-human primate PET study confirmed that [^11C]-Compound 113 had good brain uptake (SUV ~1.6) and rapid washout (2:60 min ratio ~3.0).

alpha synuclein = molecular target: T1, alpha synuclein (Homo sapiens, UniProt P37840); test: Autoradiography in postmortem brain tissue sections; type: binding; settings: PD, MSA and control brain sections
T1 construct: autoradiography
Experimental: FIGS. 1A and 1C are nuclear emulsion autoradiography images of a postmortem brain samples (A—[…] PD brain; C—MSA brain) after administration of ^3H-Compound 103. FIGS. 1B and 1D are the same samples from FIGS. 1A and 1C after incubating sequentially with anti-phospho-α-syn (S129) antibody (p-syn/81A, BioLegend) and Alexa Fluor 488 goat anti-mouse secondary antibody to immunostain LBs and LNs. FIGS. 1E and 1G are nuclear emulsion autoradiography images of postmortem brain samples of (E—PD brain; G—[…] MSA brain) with ^3H-Compound 43. FIGS. 1F and 1H are the same samples from FIGS. 1E and 1G after incubating sequentially with anti-phospho-α-syn (S129) antibody (p-syn/81A, BioLegend) and Alexa Fluor 488 goat anti-mouse secondary antibody to immunostain LBs and LNs.
FIG. 3 are autoradiography images in tissue sections of ^3H-Compound 103 and ^3H-Compound 43 in PD, MSA and control brain. Neuropathological scores for Abeta, tau and Asyn are shown for each tissue section.
Kd and Bmax values of [^3H]-Compound 113 were obtained from a panel of postmortem brain samples (e.g., PD, MSA, corticobasal degeneration (CBD), progressive supranuclear palsy (PSP), Alzheimer's disease (AD)). Nuclear emulsion autoradiography identified the distribution of [^3H]-Compound 113 on PD and MSA tissues for aggregated Asyn, which was confirmed by antibody staining. […]

α-synuclein fibrils = α-synuclein fibrils (Homo sapiens, UniProt P37840); test: Competitive radioligand binding with [^3H]BF2846 on α-synuclein fibrils; settings: [^3H]BF2846, α-synuclein fibrils; mean + Sd, n = 3; read-out: α-syn Ki
Experimental: Competition binding assays were performed with [^3H]BF2846 and [^3H]PIB to measure affinity to Asyn and Aβ. […]

Sequence of aggregated tau (P10636 whole entry): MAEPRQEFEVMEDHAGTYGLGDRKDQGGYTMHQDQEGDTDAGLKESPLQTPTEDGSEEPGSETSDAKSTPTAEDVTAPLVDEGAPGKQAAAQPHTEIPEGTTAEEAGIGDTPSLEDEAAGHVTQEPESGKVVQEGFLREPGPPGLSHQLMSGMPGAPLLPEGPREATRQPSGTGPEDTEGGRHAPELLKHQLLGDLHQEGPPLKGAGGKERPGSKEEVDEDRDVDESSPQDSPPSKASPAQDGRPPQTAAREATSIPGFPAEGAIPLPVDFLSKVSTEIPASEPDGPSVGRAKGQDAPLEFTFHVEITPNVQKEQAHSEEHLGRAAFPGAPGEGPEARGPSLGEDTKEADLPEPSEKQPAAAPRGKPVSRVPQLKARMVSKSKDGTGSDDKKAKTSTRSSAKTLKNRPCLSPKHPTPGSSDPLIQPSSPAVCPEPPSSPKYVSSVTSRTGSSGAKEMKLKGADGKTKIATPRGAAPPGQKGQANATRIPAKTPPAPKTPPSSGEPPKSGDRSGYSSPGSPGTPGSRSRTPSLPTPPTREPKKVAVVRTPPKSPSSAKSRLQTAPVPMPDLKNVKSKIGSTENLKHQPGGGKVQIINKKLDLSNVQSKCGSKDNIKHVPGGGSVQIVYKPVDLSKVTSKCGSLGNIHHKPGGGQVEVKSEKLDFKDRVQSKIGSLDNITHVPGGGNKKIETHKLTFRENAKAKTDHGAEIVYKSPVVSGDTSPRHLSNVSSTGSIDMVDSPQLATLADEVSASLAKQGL

uptake (words) [1]: high uptake
washout [1]: rapid washout
SMILES: COc1ccc(NC(=O)c2cnc(Cl)nc2)cc1 [[^11C]-compound 43]

ability to image alpha synuclein in human postmortem samples (alpha synuclein): PD and not MSA and age-matched control
SMILES: COc1ccc(NC(=O)c2cnc(Cl)nc2)cc1 [[^3H]-Compound 43]

blocking of [^3H]-Compound 113 binding by tau ligands (aggregated tau): could not be blocked
SMILES: Fc1cc(-c2ccc3c(n2)[nH]c2ccncc23)ccn1 [PI-2620]

Ki (α-synuclein fibrils): 24.8 nM
SMILES: Nc1nc(N2CCN(c3ccccn3)CC2)ncc1C(=O)Nc1ccc(OC[C@@H](O)CF)cc1 [Compound 136, (R)-4-amino-N-(4-(3-fluoro-2-hydroxypropoxy)phenyl)-2-(4-(pyridin-2-yl)piperazin-1-yl)pyrimidine-5-carboxamide]

The next lines start with the compound.

SMILES: CNc1ccc(/C=C/C=C/c2nc3ccc(OCC(O)CF)cc3s2)cn1 (centres unmarked) [PM-PBB3]
blocking of [^3H]-Compound 113 binding by tau ligands (aggregated tau): could not be blocked

SMILES: COc1ccc(C(=O)Nc2ccc(N3C4CCC3CN(c3ccccn3)C4)cc2)cc1 [[^3H]-Compound 103, 4-methoxy-N-(4-(3-(pyridin-2-yl)-3,8-diazabicyclo[3.2.1]octan-8-yl)phenyl)benzamide]
ability to image alpha synuclein in human postmortem samples (alpha synuclein): MSA and not PD and age-matched control

SMILES: COc1ccc(C(=O)Nc2ccc(N3C4CCC3CN(c3ccccn3)C4)cc2)cc1 [[^11C]-Compound 103, 4-methoxy-N-(4-(3-(pyridin-2-yl)-3,8-diazabicyclo[3.2.1]octan-8-yl)phenyl)benzamide]
uptake (words) [1]: high brain uptake
washout [1]: rapid washout
uptake (words) ([1]; listed as [^11C]-compound 103): high uptake

SMILES: CCOC(=O)c1cnc(N2CCN(c3nc4ccccc4o3)CC2)nc1N [Compound 10, Ethyl 4-amino-2-(4-(benzo[d]oxazol-2-yl)piperazin-1-yl)pyrimidine-5-carboxylate]
Ki (α-synuclein fibrils): 2.5 nM
